Experimental data as given in patent publication US6376478B1, “Pharmaceutical compositions and methods for treating anxiety, anxiety disorders and memory impairment using naaladase inhibitors” (Guilford Pharmaceuticals Inc., priority 1999, dated 2002).
pKi: −log10 of the molar value. Values joined by “and” are separate entries in the source; they are usually repeats but may differ in a detail not shown here. Identical values can stand only once. Marks after values point to notes of the source that are not given here.

Assays:
[1] = target: NAALADase (Homo sapiens, UniProt Q04609); experiment: In vitro inhibition of NAALADase activity; type: biochemical
[2] = Passive avoidance anxiolytic model (shuttlebox, latency to cross); type: in vivo; settings: for performance compared with flurazepam in passive avoidance: in some experiments
From the text: The passive avoidance test consists of an acquisition and a retention trial. On the day prior to dosing, the animal is placed into the shuttlebox and allowed to acclimate. A conditioned stimulus (light) is presented for approximately 100 seconds. When the animal crosses to the dark compartment, a mild (0.5 mA) footshock is presented until the animal returns to the lighted compartment or for approximately 10 seconds. Animals failing to cross during acquisition trial is randomly replaced. The day following acquisition, animals are administered test article, saline or flurazepam 10 minutes prior to being placed in the shuttlebox and tested for retention as described above. Latency to cross (in seconds) is recorded.

[3] = Flurazepam 3 mg/kg IP group, acquisition is on the day prior to dosing
[4] = Flurazepam 5 mg/kg IP group, Table I second study, day prior to dosing
[5] = Flurazepam 5 mg/kg IP, Table I second study
[6] = Table II, Flurazepam 5 mg/kg IP

Sequence of NAALADase (Q04609 whole entry): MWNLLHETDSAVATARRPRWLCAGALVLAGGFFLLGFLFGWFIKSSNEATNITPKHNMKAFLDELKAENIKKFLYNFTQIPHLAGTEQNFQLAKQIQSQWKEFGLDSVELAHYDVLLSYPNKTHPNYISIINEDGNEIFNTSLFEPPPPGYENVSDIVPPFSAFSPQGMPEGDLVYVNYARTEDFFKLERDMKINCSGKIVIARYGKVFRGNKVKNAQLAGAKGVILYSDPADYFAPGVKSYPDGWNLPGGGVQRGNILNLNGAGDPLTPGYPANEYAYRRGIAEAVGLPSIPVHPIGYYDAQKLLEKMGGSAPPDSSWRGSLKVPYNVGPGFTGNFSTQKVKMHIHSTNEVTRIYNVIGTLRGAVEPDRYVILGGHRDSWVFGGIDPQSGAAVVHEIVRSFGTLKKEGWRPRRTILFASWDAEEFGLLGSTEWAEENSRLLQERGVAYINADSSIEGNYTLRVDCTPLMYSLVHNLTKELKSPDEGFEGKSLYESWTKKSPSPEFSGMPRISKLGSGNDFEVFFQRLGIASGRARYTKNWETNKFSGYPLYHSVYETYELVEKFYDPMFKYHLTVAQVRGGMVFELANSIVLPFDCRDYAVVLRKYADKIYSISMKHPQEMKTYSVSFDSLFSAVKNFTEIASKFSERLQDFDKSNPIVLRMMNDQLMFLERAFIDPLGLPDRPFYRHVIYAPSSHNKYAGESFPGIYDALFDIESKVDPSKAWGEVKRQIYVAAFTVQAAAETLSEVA

Structure (SMILES) | pKi [1] | further results
CC(CS)C(CCC(=O)O)C(=O)O (stereo not shown) [2-(1-methyl-2-sulfanylethyl)penanedioic acid] | 6.07 | 
Cc1ccc(P(=O)(O)CC(CCC(=O)O)C(=O)O)cc1 (stereo not shown) | 6.69 | 
O=C(O)CCCC(CP(=O)(O)O)C(=O)O (stereo not shown) | 6.73 | 
CP(=O)(O)CC(CCC(=O)O)C(=O)O (stereo not shown) | 5.96 | 
O=C(O)CCC(CP(=O)(O)CN1C(=O)c2ccccc2C1=O)C(=O)O (stereo not shown) | 7.47 | 
CC(C)(C)OC(=O)CCC(CP(=O)(CC(CCC(=O)O)C(=O)O)OC(C)(C)C)C(=O)OC(C)(C)C (stereo not shown) | 5.37 | 
O=C(O)CCC(CP(=O)(O)Cc1cccc(C(F)(F)F)c1)C(=O)O (stereo not shown) | 7.66 | 
O=C(O)CC(CP(=O)(O)O)C(=O)O (stereo not shown) [2-(phosphonomethyl) succinic acid] | 6.15 | 
O=C(O)CCC(CP(=O)(O)CC(CCC(=O)O)C(=O)O)C(=O)O (stereo not shown) | 9.22 | 
CC(C)(C)c1ccc(NCP(=O)(O)CC(CCC(=O)O)C(=O)O)cc1 (stereo not shown) | 8.70 | 
O=C(O)CCC(CP(=O)(O)CCCc1ccccc1)C(=O)O (stereo not shown) | 6.63 | 
O=C(O)CCC(CP(=O)(O)Cc1ccc(OCc2ccccc2)cc1)C(=O)O (stereo not shown) | 6.75 | 
CC(CS)CC(CCC(=O)O)C(=O)O (mixture of isomers) [2-(3-sulfanyl-2-methylpropyl)pentanedioic acid] | 6.62 | 
O=C(O)CCC(CP(=O)(O)Cc1c(F)c(F)c(F)c(F)c1F)C(=O)O (stereo not shown) [drawing 45] | 7.64 | 
CCN(CC)CCN1C(=O)CN=C(c2ccccc2F)c2cc(Cl)ccc21 [Flurazepam, flurazepam, reference compound] |  | Latency to Cross, Acquisition Trial, MEAN [2, 3]: 10.1 s; Latency to Cross, Acquisition Trial, individual animals [2, 3]: 7.0 s and 9.5 s and 8.8 s and 2.8 s and 19.3 s and 5.4 s and 8.2 s and 28.2 s and 7.1 s and 2.4 s and 16.7 s and 8.4 s and 11.3 s and 6.9 s and 9.1 s; Latency to Cross, Retention Trial, MEAN ([2]; Flurazepam 3 mg/kg IP, 10 minutes before test): 47.5 s; Latency to Cross, Retention Trial, individual animals ([2]; Flurazepam 3 mg/kg IP, 10 minutes before test, stimulus about 100 seconds): 83.3 seconds and 100.0 seconds (4×) and 5.5 seconds and 4.7 seconds and 16.1 seconds and 65.3 seconds and 6.9 seconds and 2.1 seconds and 34.1 seconds and 2.2 seconds and 47.5 seconds and 34.9 seconds; Latency to Cross, Acquisition Trial, MEAN [2, 4]: 8.4 s; Latency to Cross, Acquisition Trial, individual animals [2, 4]: 6.6 s and 39.8 s and 2.7 s and 10.6 s and 0.5 s and 0.1 s and 7.4 s and 4.0 s and 4.9 s and 14.7 s and 10.1 s and 9.5 s and 1.9 s and 12.9 s and 0.7 s; Latency to Cross, Retention Trial, MEAN [2, 5]: 20.8 s; Latency to Cross, Retention Trial, individual animals [2, 5]: 11.2 s and 56.3 s and 10.5 s and 23.9 s and 6.5 s and 6.0 s and 13.4 s and 0.8 s and 21.4 s and 2.9 s and 67.2 s and 19.0 s and 58.3 s and 4.8 s and 9.7 s; Latency to Cross, Mean [2, 6]: 12.9 s; Latency to Cross, individual animals [2, 6]: 4.7 seconds and 9.6 seconds and 4.1 seconds (2×) and 26.0 seconds and 0.3 seconds (2×) and 4.0 seconds (2×) and 8.0 seconds and 3.5 seconds and 12.0 seconds and 16.9 seconds and 89.0 seconds and 6.4 seconds
O=C(O)CCC(CP(=O)(O)CNCc1ccccc1)C(=O)O (stereo not shown) | 7.28 | 
O=C(O)CCC(CC(S)c1cccc2ccccc12)C(=O)O (stereo not shown) | 5.00 | 
CC(=O)NCP(=O)(O)CC(CCC(=O)O)C(=O)O (stereo not shown) | 6.93 | 
CC(CP(=O)(O)CC(CCC(=O)O)C(=O)O)C(=O)O (stereo not shown) | 8.70 | 
O=C(O)CCC(CP(=O)(O)CNC(=S)Nc1ccccc1)C(=O)O (stereo not shown) | 7.12 | 
O=C(O)CCC(CP(=O)(O)Cc1ccccc1C(F)(F)F)C(=O)O (stereo not shown) | 7.04 | 
COC(=O)c1ccc(CP(=O)(O)CC(CCC(=O)O)C(=O)O)cc1 (stereo not shown) | 6.13 | 
Cc1cccc(P(=O)(O)CC(CCC(=O)O)C(=O)O)c1 (stereo not shown) | 6.74 | 
O=C(O)CCC(CP(=O)(O)c1ccc(F)cc1)C(=O)O (stereo not shown) | 6.27 | 
O=C(O)CCC(CP(=O)(O)Cc1c(F)c(F)c(F)c(F)c1F)C(=O)O (stereo not shown) [Compound 2, 2-[[(2,3,4,5,6-pentafluorobenzyl)hydroxyphosphinyl]methyl]pentanedioic acid] |  | Latency to Cross, Acquisition Trial, MEAN ([2]; Compound 2 100 mg/kg IP group, first study (animals 31-45), day prior to dosing): 6.7 s; Latency to Cross, Acquisition Trial, individual animals ([2]; Compound 2 100 mg/kg IP group, first study (animals 31-45), day prior to dosing, 100 mg/kg): 4.0 seconds and 0.1 seconds (2×) and 14.9 seconds and 5.0 seconds and 6.4 seconds and 9.5 seconds and 4.6 seconds and 5.7 seconds and 13.0 seconds and 5.1 seconds and 6.2 seconds and 10.1 seconds and 4.3 seconds and 11.4 seconds; Latency to Cross, Acquisition Trial, MEAN ([2]; Compound 2 100 mg/kg IP group, second study (animals 103-414), day prior to dosing): 7.5 s; Latency to Cross, Acquisition Trial, individual animals ([2]; Compound 2 100 mg/kg IP group, second study (animals 103-414), day prior to dosing, 100 mg/kg): 0.0 s and 11.4 s and 12.1 s and 1.5 s and 1.6 s and 7.0 s and 6.8 s and 20.0 s and 2.3 s and 0.6 s and 9.6 s and 3.2 s and 10.4 s and 5.7 s and 18.7 s; Latency to Cross, Retention Trial, MEAN ([2]; Compound 2 100 mg/kg IP, first study (animals 31-45), significance difference compared to Group 1, p ≦ 0.05): 66.8^a seconds; Latency to Cross, Retention Trial, individual animals ([2]; Compound 2 100 mg/kg IP, first study (animals 31-45), stimulus about 100 seconds, 100 mg/kg): 9.8 seconds and 7.1 seconds and 4.8 seconds and 100.0 seconds (8×) and 88.4 seconds and 7.8 seconds and 15.8 seconds and 68.4 seconds; Latency to Cross, Retention Trial, MEAN ([2]; Compound 2 100 mg/kg IP, second study (animals 103-414), animal 406 omitted): 29.6 s; Latency to Cross, Retention Trial, individual animals ([2]; Compound 2 100 mg/kg IP, second study (animals 103-414), animal 406 omitted from statistical analysis, 100 mg/kg): 3.1 seconds and 33.9 seconds and 100.0 seconds (2×) and 13.2 seconds and 6.6 seconds and 39.4 seconds and 7.9 seconds and 33.2 seconds and 8.4 seconds and 41.5 seconds and 19.5 seconds and 7.3 seconds and 100.0^b seconds and 0.3 seconds; anxiolytic properties in passive avoidance ([2]; Example 14): exhibit anxiolytic properties; performance compared with flurazepam in passive avoidance ([2]; Example 14): performed better than the known anxiolytic agent, flurazepam
O=C(O)CCC(CP(=O)(O)c1ccccc1)C(=O)O (stereo not shown) | 7.44 | 
CC(CP(=O)(O)CC(CCC(=O)O)C(=O)O)C(=O)OCc1ccccc1 (stereo not shown) | 7.02 | 

Structure (SMILES) | pKi [1] | further results
CCCCC(S)CC(CCC(=O)O)C(=O)O (stereo not shown) [2-(2-sulfanylhexyl)pentanedioic acid] | 5.32 | 
O=C(O)CCC(CP(=O)(O)Cc1ccc(O)cc1)C(=O)O (stereo not shown) | 6.93 | 
O=C(O)CCC(CP(=O)(O)CCc1ccccc1)C(=O)O (stereo not shown) | 6.83 | 
CC(CP(=O)(O)O)C(=O)O (stereo not shown) | 8.70 | 
CCC(CS)C(CCC(=O)O)C(=O)O (stereo not shown) [2-(1-ethyl-2-sulfanylethyl)pentanedioic acid] | 5.81 | 
O=C(O)CCC(CP(=O)(O)CC(CCC(=O)OCc1ccccc1)C(=O)OCc1ccccc1)C(=O)O (stereo not shown) | 7.89 | 
O=C(O)CCC(CCSSCCC(CCC(=O)O)C(=O)O)C(=O)O (stereo not shown) [2-[2-[(3,5-dicarboxypentyl)dithio]ethyl]pentanedioic acid] | 4.78 | 
CCCCP(=O)(O)CC(CCC(=O)O)C(=O)O (stereo not shown) | 6.94 | 
O=C(O)CCP(=O)(O)O | 6.63 | 
O=C(O)CCC(CP(=O)(O)Cc1ccc(F)cc1)C(=O)O (stereo not shown) | 7.15 | 
O=C(O)CCC(CCCS)C(=O)O (stereo not shown) [2-(3-sulfanylpropyl)pentanedioic acid] |  | anxiolytic properties in passive avoidance ([2]; Example 15, written in present tense): exhibit anxiolytic properties
O=C(O)C(Cc1ccccc1)CP(=O)(O)O (stereo not shown) | 6.26 | 
O=C(O)CCC(CP(=O)(O)CNS(=O)(=O)c1ccccc1)C(=O)O (stereo not shown) | 7.05 | 
O=C(O)CCC(CP(=O)(O)C(NCc1ccccc1)c1ccccc1)C(=O)O (stereo not shown) | 6.50 | 
Cc1ccc(NCP(=O)(O)CC(CCC(=O)O)C(=O)O)cc1 (stereo not shown) | 8.30 | 
O=C(O)CCC(CP(=O)(O)C(NC(=O)O)c1ccccc1)C(=O)O (stereo not shown) | 5.70 | 
O=C(O)CCC(CP(=O)(O)CN(Cc1ccccc1)Cc1ccccc1)C(=O)O (stereo not shown) | 6.76 | 
O=C(O)C(CCc1ccccc1)CP(=O)(O)O (stereo not shown) | 6.70 | 
O=C(O)CCC(CP(=O)(O)Cc1ccccc1F)C(=O)O (stereo not shown) | 6.84 | 
Cc1ccc(CP(=O)(O)CC(CCC(=O)O)C(=O)O)cc1 (stereo not shown) | 7.17 | 
O=C(O)CCC(CP(=O)(O)CNC(=O)c1ccccc1)C(=O)O (stereo not shown) | 6.85 | 
O=C(O)CCC(CP(=O)(O)CCC(=O)O)C(=O)O (stereo not shown) [2-[[(2-carboxyethyl)hydroxyphosphinyl]methyl]pentanedioic acid] | 8.70 | 
COc1ccc(NCP(=O)(O)CC(CCC(=O)O)C(=O)O)cc1 (stereo not shown) | 8.70 | 
O=C(O)CCC(CP(=O)(O)O)C(=O)O (stereo not shown) [Compound 3, 2-(phosphonomethyl)pentanedioic acid] |  | Latency to Cross, Retention Trial, MEAN ([2]; Compound 3 100 mg/kg IP): 43.0 s; Latency to Cross, Acquisition Trial, MEAN ([2]; Compound 3 100 mg/kg IP group, day prior to dosing): 7.8 s; Latency to Cross, Acquisition Trial, individual animals ([2]; Compound 3 100 mg/kg IP group, day prior to dosing, 100 mg/kg): 11.8 s and 11.5 s and 9.2 s and 0.8 s and 0.6 s and 2.9 s and 18.6 s and 9.3 s and 0.2 s and 2.0 s and 5.9 s and 6.1 s and 25.0 s and 2.2 s and 10.5 s; Latency to Cross, Retention Trial, individual animals ([2]; Compound 3 100 mg/kg IP, stimulus about 100 seconds, 100 mg/kg): 100.0 seconds (4×) and 4.6 seconds and 9.9 seconds and 47.4 seconds and 12.9 seconds and 20.6 seconds and 6.6 seconds and 33.0 seconds and 89.8 seconds and 5.2 seconds and 5.9 seconds and 8.5 seconds; anxiolytic properties in passive avoidance ([2]; Example 14): exhibit anxiolytic properties; performance compared with flurazepam in passive avoidance ([2]; Example 14): performed better than the known anxiolytic agent, flurazepam
O=C(O)CCC(CP(=O)(O)Cc1ccccc1)C(=O)O (stereo not shown) | 7.28 | 
O=C(O)CCC(CP(=O)(O)CNc1ccc(F)cc1)C(=O)O (stereo not shown) | 8.05 | 
